Results from ChEMBL document CHEMBL2163249, “Exploration of natural compounds as sources of new bifunctional scaffolds targeting cholinesterases and beta amyloid aggregation: the case of chelerythrine” (Bioorg Med Chem, 2012).

Target: Acetylcholinesterase (Electrophorus electricus) (UniProt O42275)
Conditions: at 2 mg/mL
Description: Inhibition of electric eel AChE at 2 mg/ml by Ellman's method

Sequence of Acetylcholinesterase (Electrophorus electricus) (O42275 24-633 limits assumed): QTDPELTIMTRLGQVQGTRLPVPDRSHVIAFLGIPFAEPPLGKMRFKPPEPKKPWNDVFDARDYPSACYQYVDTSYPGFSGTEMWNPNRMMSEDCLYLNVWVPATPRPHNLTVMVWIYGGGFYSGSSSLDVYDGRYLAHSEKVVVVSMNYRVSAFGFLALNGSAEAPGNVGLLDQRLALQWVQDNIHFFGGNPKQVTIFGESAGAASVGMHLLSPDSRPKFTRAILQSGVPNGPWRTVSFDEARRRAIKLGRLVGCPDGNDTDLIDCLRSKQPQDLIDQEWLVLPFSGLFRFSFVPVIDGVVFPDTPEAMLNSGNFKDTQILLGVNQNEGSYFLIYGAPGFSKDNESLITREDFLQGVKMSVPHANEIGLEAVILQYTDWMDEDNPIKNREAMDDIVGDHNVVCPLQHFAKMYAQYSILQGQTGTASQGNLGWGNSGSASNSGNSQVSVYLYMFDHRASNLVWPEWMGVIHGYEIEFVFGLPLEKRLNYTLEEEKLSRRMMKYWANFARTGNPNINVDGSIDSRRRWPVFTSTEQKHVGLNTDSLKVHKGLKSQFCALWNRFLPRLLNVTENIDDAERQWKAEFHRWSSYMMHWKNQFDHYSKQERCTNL

SMILES	inhibition [%]
C[N+](C)(C)CC(O)CC(=O)O (racemic)	-6.56
COc1cc(-c2oc3cc(O)cc(O)c3c(=O)c2O[C@@H]2O[C@H](CO)[C@@H](O)[C@H](O)[C@H]2O)ccc1O	30.6
O=C(/C=C/c1ccc(O)cc1)CC(=O)/C=C/c1ccc(O)cc1	2
CC(C)[C@@]1(O)[C@@H](OC(=O)c2cc[nH]c2)[C@@]2(O)[C@]3(C)C[C@@]4(O)O[C@@]5([C@H](O)[C@@H](C)CC[C@]35O)[C@@]2(O)[C@@]41C	21.7
O=C1c2ccccc2-n2c1nc1ccccc1c2=O	35.3
C[C@@]12C=Cc3occc3[C@H]1CC[C@]13CC(=O)[C@H](CC[C@H]12)C3	8.34
COC1=CC(=O)O[C@@H](CCc2ccc3c(c2)OCO3)C1	24.8
c1coc(CNc2ncnc3[nH]cnc23)c1	-5.12
COc1cc([C@@H]2CC(=O)c3c(O)cc(O)cc3O2)ccc1O	29.5
CC1=C(C(=O)O)N2C(=O)[C@@H](NC(=O)[C@H](N)C3=CCC=CC3)[C@H]2SC1	-0.38
O=c1c2ccccc2nc2n1CCc1c-2[nH]c2ccccc12	-4
COc1ccc2c(c1O)-c1c(OC)c(OC)cc3c1[C@H](C2)N(C)CC3	-6.07
COc1ccc(Cc2nccc3cc(OC)c(OC)cc23)cc1OC	35
CC[C@@H](C(=O)O)[C@@H]1O[C@@H]([C@@H](C)[C@H](O)[C@H](C)C(=O)[C@H](CC)[C@H]2O[C@]3(C=C[C@@H](O)[C@]4(CC[C@@](C)([C@H]5CC[C@](O)(CC)[C@H](C)O5)O4)O3)[C@H](C)C[C@@H]2C)[C@@H](C)C[C@@H]1C	-1.36
CC1(C)O[C@H]2CC(=O)OC[C@]23[C@H]2CC[C@@]4(C)[C@H](c5ccoc5)OC(=O)[C@H]5O[C@]54[C@]2(C)C(=O)C[C@@H]13	-0.85
Nc1ncnc2c1ccn2[C@@H]1O[C@H](CO)[C@@H](O)[C@H]1O	4.48
c1cncc([C@@H]2CCCCN2)c1	0.25
CCCCCC[C@@H]1[C@@H](OC(=O)C(C)C)[C@H](C)O[C@@H](O)[C@@H](N[C@H](O)c2cccc(NC=O)c2O)[C@@H](C)O[C@H]1O	-2.88
C[C@@H]1C(=O)O[C@H]2C[C@@]34[C@H]5C[C@@H](C(C)(C)C)[C@]36[C@@H](OC(=O)[C@@H]6O)O[C@@]4(C(=O)O5)[C@]21O	6.97
OCC1=C[C@@H](O)[C@@H]2C=CO[C@@H](O[C@@H]3O[C@H](CO)[C@@H](O)[C@H](O)[C@H]3O)[C@H]12	-1.28
CC(C)=CCC/C(C)=C/CC/C(C)=C/CC/C(C)=C/CC/C(C)=C/CC/C(C)=C/CC/C(C)=C/CC/C(C)=C/CC/C(C)=C/CO	-1.74
CC(=O)OC[C@@]1(O)C[C@@]23CC[C@@H]4c5ccoc5CC[C@@]4(C)[C@@H]2CC[C@@H]1C3	-6.2
COc1ccc([C@@H]2CC(=O)c3c(O)cc(O[C@@H]4O[C@H](CO[C@@H]5O[C@@H](C)[C@H](O)[C@@H](O)[C@H]5O)[C@@H](O)[C@H](O)[C@H]4O)cc3O2)cc1O	-4.26
O=C1c2ccc(O)cc2O[C@@H](c2cc(O)c(O)c(O)c2)[C@@H]1O	4.04
CC[C@@H](CO)NC(=O)[C@@H]1C=C2c3cccc4[nH]cc(c34)C[C@H]2N(C)C1	6.45

Target: Cholinesterase (Equus caballus) (UniProt P81908)
Sequence (P81908 whole entry): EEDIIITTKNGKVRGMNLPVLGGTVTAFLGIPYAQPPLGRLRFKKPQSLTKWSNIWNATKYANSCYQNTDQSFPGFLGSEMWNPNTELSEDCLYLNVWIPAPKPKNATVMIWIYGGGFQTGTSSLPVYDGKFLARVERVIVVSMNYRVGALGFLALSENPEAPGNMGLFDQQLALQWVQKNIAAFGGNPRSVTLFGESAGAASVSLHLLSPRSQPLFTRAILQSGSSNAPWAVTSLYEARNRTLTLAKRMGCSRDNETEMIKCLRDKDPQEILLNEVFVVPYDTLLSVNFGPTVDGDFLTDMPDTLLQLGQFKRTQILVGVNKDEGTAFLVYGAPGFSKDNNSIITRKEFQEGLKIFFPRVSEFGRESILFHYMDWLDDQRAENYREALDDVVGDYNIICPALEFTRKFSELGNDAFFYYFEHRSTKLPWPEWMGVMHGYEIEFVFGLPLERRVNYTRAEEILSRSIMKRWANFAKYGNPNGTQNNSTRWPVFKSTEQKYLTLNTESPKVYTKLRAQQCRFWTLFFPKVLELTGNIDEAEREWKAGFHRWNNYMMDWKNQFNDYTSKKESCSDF
Conditions: at 2 mg/mL
Description: Inhibition of horse BChE at 2 mg/ml by Ellman's method

SMILES	inhibition [%]
C[N+](C)(C)CC(O)CC(=O)O (racemic)	-2.91
COc1cc(-c2oc3cc(O)cc(O)c3c(=O)c2O[C@@H]2O[C@H](CO)[C@@H](O)[C@H](O)[C@H]2O)ccc1O	1.08
O=C(/C=C/c1ccc(O)cc1)CC(=O)/C=C/c1ccc(O)cc1	7.13
CC(C)[C@@]1(O)[C@@H](OC(=O)c2cc[nH]c2)[C@@]2(O)[C@]3(C)C[C@@]4(O)O[C@@]5([C@H](O)[C@@H](C)CC[C@]35O)[C@@]2(O)[C@@]41C	-2.13
O=C1c2ccccc2-n2c1nc1ccccc1c2=O	-2.13
CNc1ccc2oc(C[C@H]3O[C@@]4(CC[C@H]3C)O[C@H]([C@H](C)C(=O)c3ccc[nH]3)[C@H](C)C[C@H]4C)nc2c1C(=O)O	-3.34
COC1=CC(=O)O[C@@H](CCc2ccc3c(c2)OCO3)C1	3.66
c1coc(CNc2ncnc3[nH]cnc23)c1	3.13
COc1cc([C@@H]2CC(=O)c3c(O)cc(O)cc3O2)ccc1O	3.1
CCCCCCCCCCCCCC/C(C(=O)O)=C(\C)C(=O)O	9.23
C[C@@H]1C[C@@H]([C@H](O)CC2CC(=O)NC(=O)C2)C(=O)[C@@H](C)C1	-2.08
O=C(O)CCCc1c[nH]c2ccccc12	-5.54
CC(=O)C1=C(O)[C@@H]2[C@H]3c4c[nH]c5cccc(c45)C[C@H]3C(C)(C)N2C1=O	6.85
Cc1cc2c(C(C)C)c(O)c(O)c(C=O)c2c(O)c1-c1c(C)cc2c(C(C)C)c(O)c(O)c(C=O)c2c1O	-2.11
CC[C@@]1([C@@H]2O[C@@H]([C@H]3O[C@@](O)(CO)[C@H](C)C[C@@H]3C)C[C@@H]2C)CC[C@H]([C@]2(C)CC[C@]3(C[C@H](O)[C@@H](C)[C@@H]([C@@H](C)[C@@H](OC)[C@H](C)C(=O)O)O3)O2)O1	2.48
C=C[C@@]1(C)CC(=O)[C@]2(O)[C@@]3(C)[C@@H](O)CCC(C)(C)[C@@H]3[C@H](O)[C@H](OC(C)=O)[C@@]2(C)O1	1.35
CC(=O)OCC1=C[C@H]2[C@@H]3C(C)(C)[C@]3(OC(=O)Cc3ccccc3)C[C@@H](C)[C@]2(O)[C@@H]2C=C(C)C(=O)[C@@]2(O)C1	6.06
COc1cccc2c1cc([N+](=O)[O-])c1c(C(=O)O)cc3c(c12)OCO3	22.7
C=C1CC[C@@H]2O[C@]2(C)CC[C@@H]2[C@@H]1CC2(C)C	1.64
O=C(O[C@@H]1Cc2c(O)cc(O)cc2O[C@@H]1c1cc(O)c(O)c(O)c1)c1cc(O)c(O)c(O)c1	-4.27

SMILES	inhibition [%]
COc1ccc([C@@H]2OC[C@@H]3[C@H]2CO[C@H]3c2ccc(OC)c(OC)c2)cc1OC	0.02
CO[C@H]1[C@H](OC(=O)c2ccc(C)[nH]2)[C@H](O)[C@@H](Oc2ccc3c(O)c(NC(=O)c4c[nH]c(C(=O)Nc5c(O)c6ccc(O[C@H]7OC(C)(C)[C@@H](OC)[C@H](OC(=O)c8ccc(C)[nH]8)[C@@H]7O)c(C)c6oc5=O)c4C)c(=O)oc3c2C)OC1(C)C	3.14
CN1C(=O)[C@]23CC4=CC=C[C@H](O)[C@H]4N2C(=O)[C@@]1(CO)SS3	10.3
C/C(=C/C=C/[C@@H](C)C(=O)O)[C@H]1CN[C@H](C(=O)O)[C@H]1CC(=O)O	2.83
CCCCCCCCCCCC1=C(O)C(=O)C=C(O)C1=O	1.24
C=C1O[C@@](CO)(n2cnc3c(N)ncnc32)[C@H](O)[C@@H]1O	-3.01
CC1=CC(=O)CC(C)(C)C1(O)/C=C/C(C)=C\C(=O)O (racemic)	-4.4
CC(C)=CCC[C@](C)(O)[C@H]1CC[C@]2(C)[C@@H]1CC[C@@H]1[C@@]3(C)CCC(=O)C(C)(C)[C@@H]3CC[C@]12C	-2.48
CC(C)(C)[C@]1(O)CC2OC(=O)CC23C(=O)OC2OC(=O)[C@H](O)C231 (some centres undefined)	10.9
CNC(=O)Oc1ccc2c(c1)[C@]1(C)CCN(C)[C@@H]1N2C	88
CS[C@H]1SC[C@H]2C(=O)N(C)[C@@H](C(C)C)C(=O)OC[C@@H](NC(=O)c3cnc4ccccc4n3)C(=O)N[C@@H](C)C(=O)N(C)[C@@H]1C(=O)N(C)[C@@H](C(C)C)C(=O)OC[C@@H](NC(=O)c1cnc3ccccc3n1)C(=O)N[C@@H](C)C(=O)N2C	-7.37
O[C@H]1[C@H](O)[C@@H](O)CN2CC[C@H](O)[C@H]12	0.79
c1ccc2c3c([nH]c2c1)CNCC3	-5.97
OC[C@@H]1[C@@H](O)[C@H](O)[C@H]2[C@@H](O)CCN21	1.12
CC(=O)O[C@@]12C[C@@H](C)[C@@]3(O)[C@@H](C=C(CO)C[C@]4(O)C(=O)C(C)=C[C@@H]34)[C@@H]1C2(C)C	3.93
COc1ccc2c3c1O[C@H]1C[C@@H](O)C=C[C@@]31CCN(C)C2	37.8
COC1=CC(=O)OC(/C=C/c2ccccc2)C1 (racemic)	-2.41
Clc1ccc(C2CC3CCC2N3)cn1 (racemic)	5.32
O=C(O)/C=C/c1c[nH]c2ccccc12	4.54
